Source: PMC10418759, “New Highly Selective BACE1 Inhibitors and Their Effects on Dendritic Spine Density In Vivo” (International Journal of Molecular Sciences, 2023)

Key:
[1] = system: soluble Seizure protein 6 (sSez6); experiment: Soluble Sez6 levels in the mouse brain (Western blot); format: in vivo; conditions: C57BL/6 mice, food pellets with inhibitor for one week, soluble brain fraction; level reduced to % of vehicle
Description: C57BL/6 mice (CLEA Japan Inc., Tokyo, Japan) were fed with food pellets containing 0.02% elenbecestat, 0.0125% Shionogi compound 1, and 0.025% Shionogi compound 2 for one week (performed at AAALAC compatible facilities). Mouse cerebral hemispheres were removed and frozen immediately with liquid nitrogen. The frozen cerebral hemispheres were transferred to a homogenized tube containing ceramic beads in an 8-fold volume of the weight of an extraction buffer (containing 0.4% DEA (diethylamine), 50 mmol/L NaCl, completed with protease inhibitor (Roche, Basel, Switzerland)) and incubated on ice for 20 min. […] The brain Aβ40 was measured using Human/Rat Amyloid beta 40 ELISA Kit (FUJIFILM Wako Pure Chemical Corporation, Osaka, Japan). […]
The brain samples were heated at 95 °C in 1% SDS sample buffer with 100 mM DTT for 5 min, separated by SDS-PAGE on 4–20% precast polyacrylamide gels (Biorad, Feldkirchen, Germany), and transferred to PVDF membranes (Biorad, Feldkirchen, Germany). […] After final washes with PBST, the membranes were incubated with ECL prime for a few minutes, and signal was detected with LAS-3000 (FUJIFILM Wako Pure Chemical Corporation, Osaka, Japan). Densitometry quantification of Western blot signal was conducted using Multi Gauge V3.1 software (FUJIFILM Wako Pure Chemical Corporation, Osaka, Japan).

cognition = conditions: in vivo; cited from earlier work
[2] = biological target: T1, recombinant human BACE2 ectodomain (Homo sapiens, UniProt Q9Y5Z0); experiment: BACE2 biochemical enzymatic assay (ELISA-based, APP-derived Swedish-mutation peptide substrate); conditions: 1 h at 37 °C
T1 sequence (Q9Y5Z0 63-473 limits assumed): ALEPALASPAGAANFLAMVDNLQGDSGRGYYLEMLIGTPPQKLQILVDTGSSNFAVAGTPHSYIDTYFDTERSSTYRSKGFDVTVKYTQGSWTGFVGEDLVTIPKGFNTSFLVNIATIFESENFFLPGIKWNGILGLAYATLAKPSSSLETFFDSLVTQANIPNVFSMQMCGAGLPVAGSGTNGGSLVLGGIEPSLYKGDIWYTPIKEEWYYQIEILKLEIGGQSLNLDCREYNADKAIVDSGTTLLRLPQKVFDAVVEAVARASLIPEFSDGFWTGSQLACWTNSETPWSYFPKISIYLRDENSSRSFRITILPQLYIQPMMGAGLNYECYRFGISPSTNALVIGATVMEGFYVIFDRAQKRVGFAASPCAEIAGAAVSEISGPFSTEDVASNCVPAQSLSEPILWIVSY
Protocol: (§1) BACE1 enzymatic activity was determined in a homogeneous time-resolved fluorescence (HTRF) assay, and BACE2 enzymatic activity was determined in an enzyme-linked immunosorbent assay (ELISA)-based assay using an APP-derived peptide that contains the K670N + M671L (Swedish) double mutation of the APP β secretase cleavage site as a substrate. The recombinant human BACE1 (R&D Systems, MN, USA) was incubated (2 h at 25 °C) with the substrate and the inhibitor (9 or 10 concentrations at 1/5 steps from 10 μM). Fluorescence intensity was measured (excitation wavelength: 320 nm, measuring wavelength: 620 nm and 665 nm) using RUBYstar (BMG LABTECH, Ortenberg, Germany). The recombinant human BACE2 ectodomain was incubated (1 h at 37 °C) with the substrate and the inhibitor (10 concentrations at 1/4 steps from 25 μM). The count of chemi-luminescence in each well was measured using ARVOTM MX 1420 Multilabel Counter (PerkinElmer, Shelton, CT, USA). The inhibitory potential of the compounds on the enzymatic activity of BACE1 and BACE2 was determined by performing concentration–response curves.

recombinant human BACE1 [3] = experiment: BACE1 biochemical enzymatic assay (HTRF, APP-derived Swedish-mutation peptide substrate); conditions: selectivity for BACE1 over BACE2 from IC50 values
Protocol: as §1, with “The recombinant human BACE2 ectodomain was incubated (1 h at 37 °C) with the substrate and the inhibitor (10 concentrations at 1/4 steps from 25 μM). The count of chemi-luminescence in each well was measured using ARVOTM MX 1420 Multilabel Counter (PerkinElmer, Shelton, CT, USA).” left out

recombinant human BACE1 [4] = biological target: T2, recombinant human BACE1 (Homo sapiens, UniProt P56817); experiment: as above; conditions: HTRF, 2 h at 25 °C, APP-derived peptide substrate
T2 construct: purchased R&D Systems
Protocol: as §1, with “The recombinant human BACE2 ectodomain was incubated (1 h at 37 °C) with the substrate and the inhibitor (10 concentrations at 1/4 steps from 25 μM). The count of chemi-luminescence in each well was measured using ARVOTM MX 1420 Multilabel Counter (PerkinElmer, Shelton, CT, USA).” left out

[5] = system: dendritic spines of layer V pyramidal neurons, somatosensory cortex; experiment: Longitudinal in vivo two-photon dendritic spine imaging in GFP-M mice; set-up: species or system mouse; conditions: inhibitor food pellets for 21 days, compared to vehicle
brain Aβ40 = experiment: Brain Aβ levels in mice fed inhibitor pellets (Aβ40 ELISA, soluble brain fraction); format: in vivo, mouse; conditions: C57BL/6 mice, food pellets with inhibitor for one week, level reduced to % of vehicle
Description: C57BL/6 mice (CLEA Japan Inc., Tokyo, Japan) were fed with food pellets containing 0.02% elenbecestat, 0.0125% Shionogi compound 1, and 0.025% Shionogi compound 2 for one week (performed at AAALAC compatible facilities). Mouse cerebral hemispheres were removed and frozen immediately with liquid nitrogen. The frozen cerebral hemispheres were transferred to a homogenized tube containing ceramic beads in an 8-fold volume of the weight of an extraction buffer (containing 0.4% DEA (diethylamine), 50 mmol/L NaCl, completed with protease inhibitor (Roche, Basel, Switzerland)) and incubated on ice for 20 min. Thereafter, the hemispheres were homogenized using MP BIO FastPrep-24 (MP-Biomedicals, Irvine, CA, USA) with Lysing matrix D 1.4 mm ceramic beads (20 s at 6 m/s). After spinning for 1 min, the supernatant was transferred to a centrifugation tube and centrifuged at 221,000× g, 4 °C, for 50 min. After centrifugation, the supernatant was used for measuring the brain Aβ40. The brain Aβ40 was measured using Human/Rat Amyloid beta 40 ELISA Kit (FUJIFILM Wako Pure Chemical Corporation, Osaka, Japan). The assay procedure was conducted according to instructions.

[6] = system: dendritic spines of layer V pyramidal neurons, somatosensory cortex; conditions: mouse, in vivo; cited from earlier work

T2 sequence (P56817 46-501): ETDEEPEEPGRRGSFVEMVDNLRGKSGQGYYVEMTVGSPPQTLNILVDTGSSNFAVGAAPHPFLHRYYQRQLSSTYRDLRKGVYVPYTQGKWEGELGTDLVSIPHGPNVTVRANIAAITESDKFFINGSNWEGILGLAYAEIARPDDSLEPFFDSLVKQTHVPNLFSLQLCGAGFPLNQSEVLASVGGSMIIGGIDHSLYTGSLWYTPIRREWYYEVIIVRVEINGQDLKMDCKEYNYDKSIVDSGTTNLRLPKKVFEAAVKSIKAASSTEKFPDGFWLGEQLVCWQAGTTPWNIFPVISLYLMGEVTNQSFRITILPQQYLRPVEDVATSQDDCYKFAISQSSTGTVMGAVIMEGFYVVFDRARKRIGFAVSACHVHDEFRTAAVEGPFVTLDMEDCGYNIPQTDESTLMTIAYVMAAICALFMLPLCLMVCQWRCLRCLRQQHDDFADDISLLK

| SMILES | Brain sSez6 level compared to vehicle [1] [%] | Cognitive worsening in the clinic (cognition) | IC50 [2] [nM] | BACE1/BACE2 (fold) (recombinant human BACE1 [3]) | IC50 (recombinant human BACE1 [4]) [nM] | Dendritic spine density [5] | Brain Aβ level compared to vehicle (brain Aβ40) [%] | Dendritic spine plasticity in the cerebral cortex [6] |
| --- | --- | --- | --- | --- | --- | --- | --- | --- |
| C[C@H]1OC[C@]2(c3cc(NC(=O)c4cnc(C(F)F)cn4)ccc3F)N=C(N)SC[C@H]12 [Elenbecestat, elenbecestat] | 27 | did not show cognitive worsening | 46 | 12 | 3.9 | do not alter dendritic spine density | 46 | – |
| CN1C(=N)N[C@](C)(c2cc(NC(=O)c3ccc(F)cn3)ccc2F)CS1(=O)=O [verubecesat, verubecestat] | – | – | – | – | – | – | – | significant decrease in dendritic spine plasticity |
